US5789431A, “Naphthoquinone antitumor compound and method” (The University of North Carolina at Chapel Hill, priority 1996, dated 1998)

Columns and labels:
UACC-257 = experiment: in vitro melanoma cell growth inhibition (NCI screen)
M14 = experiment: as above
SK-OV-3 = experiment: in vitro ovarian cancer cell growth inhibition (NCI screen)
COLO-205 = experiment: in vitro colon cancer cell growth inhibition (NCI screen)
SNB-75 = experiment: in vitro CNS cancer cell growth inhibition (NCI screen)
PC-3 = experiment: in vitro prostate cancer cell growth inhibition (NCI screen)
UACC-62 = experiment: in vitro melanoma cell growth inhibition (NCI screen)
UO-31 = experiment: in vitro renal cancer cell growth inhibition (NCI screen)
ACHN = experiment: as above
U 251 = experiment: in vitro CNS cancer cell growth inhibition (NCI screen)
MALME-3M = experiment: in vitro melanoma cell growth inhibition (NCI screen)
K-562 = experiment: in vitro leukemia cell growth inhibition (NCI screen)
MDA-MB-435 = experiment: in vitro breast cancer cell growth inhibition (NCI screen)
RXF-393 = experiment: in vitro renal cancer cell growth inhibition (NCI screen)
HCT-15 = experiment: in vitro colon cancer cell growth inhibition (NCI screen)
MDA-MB-231/ATCC = experiment: in vitro breast cancer cell growth inhibition (NCI screen)
HL-60(TB) = experiment: in vitro leukemia cell growth inhibition (NCI screen)
OVCAR-4 = experiment: in vitro ovarian cancer cell growth inhibition (NCI screen); conditions: OVACR-4
IGROV1 = experiment: as above
HT 29 = experiment: in vitro colon cancer cell growth inhibition (NCI screen)
NCI-H460 = experiment: in vitro non-small cell lung cancer cell growth inhibition (NCI screen)
human tumor cell lines = assay type: cell-based; conditions: for cytotoxicity against tumor cells (in words): cancer cell line panel; for GI50: Homo sapiens, cancer cell panel, general / most cell lines, read-out: logGI50 values in the cancer cell line panel (converted)
MCF7/ADR-RES = experiment: in vitro breast cancer cell growth inhibition (NCI screen)
MOLT-4 = experiment: in vitro leukemia cell growth inhibition (NCI screen)
NCI-H23 = experiment: in vitro non-small cell lung cancer cell growth inhibition (NCI screen)
HOP-62 = experiment: as above
TK-10 = experiment: in vitro renal cancer cell growth inhibition (NCI screen)
SN12C = experiment: as above
OVCAR-3 = experiment: in vitro ovarian cancer cell growth inhibition (NCI screen)
SW 620 = experiment: in vitro colon cancer cell growth inhibition (NCI screen)
BT-549 = experiment: in vitro breast cancer cell growth inhibition (NCI screen)
T-47D = experiment: as above
NCI-H266 = experiment: in vitro non-small cell lung cancer cell growth inhibition (NCI screen)
SK-MEL-2 = experiment: in vitro melanoma cell growth inhibition (NCI screen)
SNB-19 = experiment: in vitro CNS cancer cell growth inhibition (NCI screen)
MCF-7 = experiment: in vitro breast cancer cell growth inhibition (NCI screen)
LOX1MVI = experiment: in vitro melanoma cell growth inhibition (NCI screen)
HOP-92 = experiment: in vitro non-small cell lung cancer cell growth inhibition (NCI screen)
NCI-H522 = experiment: as above
SK-MEL-5 = experiment: in vitro melanoma cell growth inhibition (NCI screen)
SF-539 = experiment: in vitro CNS cancer cell growth inhibition (NCI screen)
MDA-N = experiment: in vitro breast cancer cell growth inhibition (NCI screen)
LXFL 529 = experiment: in vitro non-small cell lung cancer cell growth inhibition (NCI screen)
DLD-1 = experiment: in vitro colon cancer cell growth inhibition (NCI screen)
KM 20L2 = experiment: as above
CCRF-CEM = experiment: in vitro leukemia cell growth inhibition (NCI screen)
OVCAR-8 = experiment: in vitro ovarian cancer cell growth inhibition (NCI screen)
M19-MEL = experiment: in vitro melanoma cell growth inhibition (NCI screen)
SF-268 = experiment: in vitro CNS cancer cell growth inhibition (NCI screen)
HCT-116 = experiment: in vitro colon cancer cell growth inhibition (NCI screen)

| Compound | cytotoxicity log GI50 (UACC-257) [M] | cytotoxicity log GI50 (M14) [M] | cytotoxicity log GI50 (COLO-205) [M] | cytotoxicity log GI50 (SNB-75) [M] | cytotoxicity log GI50 (PC-3) [M] | cytotoxicity log GI50 (UACC-62) [M] | cytotoxicity log GI50 (U 251) [M] | cytotoxicity log GI50 (MALME-3M) [M] | cytotoxicity log GI50 (MDA-MB-435) [M] | cytotoxicity log GI50 (RXF-393) [M] | cytotoxicity log GI50 (HCT-15) [M] | cytotoxicity log GI50 (MDA-MB-231/ATCC) [M] | cytotoxicity log GI50 (HL-60(TB)) [M] | cytotoxicity log GI50 (OVCAR-4) [M] | cytotoxicity log GI50 (IGROV1) [M] | cytotoxicity log GI50 (HT 29) [M] | cytotoxicity log GI50 (NCI-H23) [M] | cytotoxicity log GI50 (OVCAR-3) [M] | cytotoxicity log GI50 (SW 620) [M] | cytotoxicity log GI50 (NCI-H522) [M] | also measured |
| --- | --- | --- | --- | --- | --- | --- | --- | --- | --- | --- | --- | --- | --- | --- | --- | --- | --- | --- | --- | --- | --- |
| Cc1nc2c(n1CCCl)C(=O)c1ccccc1C2=O [Compound 21, 1-(2'-Chloroethyl)-2-methylnaphth[2,3-d]imidazole-4,9-dione] | -4.85 | -5.33 | -4.85 | -4.84 | -5.07 | -4.89 | -4.90 | -5.24 | -4.82 | -6.78 | -5.10 | -4.81 | -4.79 | -4.83 | -4.94 | -4.80 | – | – | – | – | cytotoxicity log GI50 (SK-OV-3): -5.28 M; cytotoxicity log GI50 (UO-31): -6.22 M; cytotoxicity log GI50 (ACHN): -6.32 M; cytotoxicity log GI50 (K-562): -4.80 M; cytotoxicity log GI50 (NCI-H460): -4.83 M; cytotoxicity against tumor cells (in words) (human tumor cell lines): comparable to those of compounds 6-14; cytotoxicity log GI50 (MCF7/ADR-RES): -4.79 M; cytotoxicity log GI50 (MOLT-4): -4.89 M |
| CCn1c(-c2ccc(OC)cc2)nc2c1C(=O)c1ccccc1C2=O [Compound 27] | – | – | – | – | – | – | – | – | – | – | – | – | – | – | – | – | -4.21 | – | – | – | cytotoxicity log GI50 (HOP-62): -4.22 M; GI50 (human tumor cell lines): ~10 µM |
| CCc1nc2c(n1CC)C(=O)c1ccccc1C2=O [Compound 23] | -4.60 | -4.63 | -4.77 | -4.68 | -4.73 | -4.54 | – | -4.81 | -4.74 | -4.70 | – | -4.77 | – | – | -4.61 | -4.60 | – | -4.73 | -4.57 | – | cytotoxicity log GI50 (TK-10): -4.66 M; cytotoxicity log GI50 (SN12C): -4.56 M; cytotoxicity log GI50 (BT-549): -4.76 M; cytotoxicity log GI50 (T-47D): -4.74 M; cytotoxicity log GI50 (NCI-H266): -4.54 M; GI50 (human tumor cell lines): ~10 µM |
| COC(=O)CCC(=O)NC1=C(NCc2ccccc2)C(=O)c2ccccc2C1=O [Compound 55] | -4.78 | -4.73 | -4.69 | – | – | -4.76 | – | – | -4.72 | – | -4.77 | – | -4.66 | -4.73 | -4.75 | – | -4.67 | -5.40 | -4.70 | -4.72 | cytotoxicity log GI50 (SK-MEL-2): -4.73 M; cytotoxicity log GI50 (SNB-19): -4.66 M; cytotoxicity log GI50 (MCF-7): -4.76 M; cytotoxicity log GI50 (LOX1MVI): -4.66 M; cytotoxicity log GI50 (HOP-92): -4.80 M; cytotoxicity log GI50 (SK-MEL-5): -4.92 M; cytotoxicity log GI50 (SF-539): -4.70 M; cytotoxicity log GI50 (MDA-N): -4.79 M; cytotoxicity log GI50 (NCI-H460): -4.74 M |
| O=C1c2ccccc2C(=O)c2[nH]c(Cc3ccccc3F)nc21 [Compound 4b] | – | – | -4.47 | – | – | – | -5.10 | – | – | -4.69 | – | – | -4.45 | -4.55 | – | -4.49 | -4.56 | -4.84 | -4.42 | -4.67 | cytotoxicity log GI50 (TK-10): -4.53 M; cytotoxicity log GI50 (LXFL 529): -4.50 M; cytotoxicity log GI50 (SNB-19): -4.42 M; cytotoxicity log GI50 (DLD-1): -4.79 M; cytotoxicity log GI50 (SF-539): -4.51 M; cytotoxicity log GI50 (KM 20L2): -4.47 M; cytotoxicity log GI50 (NCI-H460): -4.47 M |
| NC1=C(NC(=O)Cc2ccc(F)cc2)C(=O)c2ccccc2C1=O [Compound 3c] | – | – | – | -4.49 | – | – | -5.09 | – | – | -4.68 | – | – | -4.59 | – | -4.71 | – | -4.87 | -4.88 | – | -4.79 | cytotoxicity log GI50 (TK-10): -4.57 M; cytotoxicity log GI50 (SNB-19): -4.63 M; cytotoxicity log GI50 (HOP-92): -4.48 M; cytotoxicity log GI50 (DLD-1): -4.95 M; cytotoxicity log GI50 (CCRF-CEM): -4.55 M; cytotoxicity log GI50 (HOP-62): -4.56 M; cytotoxicity log GI50 (OVCAR-8): -4.47 M; cytotoxicity log GI50 (M19-MEL): -5.16 M; cytotoxicity against tumor cells (in words) (human tumor cell lines): inactive against all representative cancer cell lines; cytotoxicity log GI50 (SF-268): -4.54 M |
| CCNC1=C(NC(=O)c2ccccc2)C(=O)c2ccccc2C1=O [Compound 47] | -4.63 | -4.58 | -4.78 | – | -4.74 | -4.70 | – | -4.77 | -5.14 | -4.62 | -4.73 | -5.21 | – | – | – | – | – | -4.47 | -4.63 | -4.95 | cytotoxicity log GI50 (SK-OV-3): -4.62 M; cytotoxicity log GI50 (HCT-116): -4.59 M; cytotoxicity log GI50 (T-47D): -4.85 M; cytotoxicity log GI50 (MDA-N): -5.31 M; cytotoxicity log GI50 (MCF7/ADR-RES): -4.78 M |
